Converted amounts (≈) assume the structure as drawn. Where two headings read alike, the source gives them in different places. Positions of bridges follow the written chain, without caps; N, C: chain ends. Non-standard residues stand in square brackets, D forms with d. Residues, ends and D or L forms follow the SMILES beside them. *: point of attachment. Decanoyl(3R-OH) = CCCCCCC[C@@H](O)CC(=O)*; dBip = N[C@H](Cc1ccc(-c2ccccc2)cc1)C(=O)O; dDab = NCC[C@@H](N)C(=O)O; Dab = NCC[C@H](N)C(=O)O
Columns and labels:
[1] = tested on: E. coli ATCC 25922; conditions: ATCC 25922
Method in brief: (§1)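 Mid-log cultures grown in Mueller Hinton broth at 37° C were tested by 2-fold broth microdilution at 5×10^5 CFU/mL final. Compounds were dissolved in water and tested over a final range of 32 to 0.015 μg/mL.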

[2] = tested on: K. pneumoniae ATCC 13883; conditions: ATCC 13883
Method in brief: as §1

[3] = tested on: P. aeruginosa GN_043, PmxR
Method in brief: as §1

[4] = tested on: A. baumannii GN_093 PmxR; conditions: GN 093 PmxR
Method in brief: as §1

[5] = tested on: K. pneumoniae ATCC BAA-2146, NDM-1 pos; conditions: ATCC BAA-2146
Method in brief: as §1

[6] = tested on: S. aureus ATCC 25923, MSSA; conditions: ATCC 25923
Method in brief: as §1

[7] = tested on: P. aeruginosa ATCC 27853; conditions: ATCC 27853
Method in brief: as §1

[8] = tested on: K. pneumoniae ATCC 700603, MDR; conditions: ATCC 700603
Method in brief: as §1

[9] = tested on: K. pneumoniae GN_106, PmxR; conditions: GN 106, PmxR
Method in brief: as §1

[10] = tested on: A. baumannii ATCC 19606; conditions: ATCC 19606
Method in brief: as §1

[11] = tested on: K. pneumoniae GN_102 PmxR; conditions: GN 102 PmxR
Method in brief: as §1

[12] = tested on: P. aeruginosa GN_105, PmxR; conditions: GN 105, PmxR
Method in brief: as §1

[13] = in vitro; conditions: human
Method in brief: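 HK2 cells were seeded at 2000 per well in DMEM/F12 with 10% FBS and left to attach for 24 h at 37 °C, 5% CO2. They were then exposed for 24 h to 3-fold peptide dilutions starting from 600 μM solutions in quadruplicate. LDH release was read at 450 nm, and CC50 was fitted from dose-response curves.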

| Structure (SMILES) | MIC A. baumannii GN_093 PmxR [4] | MIC K. pneumoniae GN_106, PmxR [9] | MIC K. pneumoniae GN_102 PmxR [11] | MIC P. aeruginosa GN_105, PmxR [12] | CC50 at 24 h [13] | MIC E. coli ATCC 25922 [1] | MIC K. pneumoniae ATCC 13883 [2] | MIC P. aeruginosa GN_043, PmxR ([3]; polymyxin-resistant) | MIC K. pneumoniae ATCC BAA-2146, NDM-1 pos [5] | MIC S. aureus ATCC 25923, MSSA [6] | MIC P. aeruginosa ATCC 27853 [7] | MIC K. pneumoniae ATCC 700603, MDR [8] | MIC A. baumannii ATCC 19606 [10] | further results |
| --- | --- | --- | --- | --- | --- | --- | --- | --- | --- | --- | --- | --- | --- | --- |
| CCCCCCC[C@@H](O)CC(=O)N[C@H](C)C(=O)N[C@H]1CCNC(=O)[C@H](CC(C)C)NC(=O)[C@H](CCN)NC(=O)[C@H](CCN)NC(=O)[C@H](CC(C)C)NC(=O)[C@@H](Cc2ccccc2)NC(=O)[C@H](CCN)NC1=O [compound 4951, 3(R)OH-nC9CO-D-Ala-cyc[L-Dab-L-Dab-D-Phe-L-Leu-L-Dab-L-Dab-L-Leu]] ({Decanoyl(3R-OH)}-[dA][Dab][Dab][dF]L[Dab][Dab]L; lactam 2-C) | 32 µg/mL (≈ 31.5 µM) | 8 µg/mL (≈ 7.88 µM) | 4 µg/mL (≈ 3.94 µM) | 16 µg/mL (≈ 15.8 µM) | 120 µM | – | – | – | – | – | – | – | – | MIC, E. coli ATCC 25922 [1]: 16 µg/mL (≈ 15.8 µM); MIC, K. pneumoniae ATCC 13883 [2]: 16 µg/mL (≈ 15.8 µM); MIC P. aeruginosa GN_043, PmxR ([3]; Table 6, polymyxin-resistant): 8 µg/mL (≈ 7.88 µM); MIC, K. pneumoniae ATCC BAA-2146, NDM-1 pos [5]: 8 µg/mL (≈ 7.88 µM); MIC, S. aureus ATCC 25923, MSSA [6]: 32 µg/mL (≈ 31.5 µM); MIC, P. aeruginosa ATCC 27853 [7]: 8 µg/mL (≈ 7.88 µM); MIC, K. pneumoniae ATCC 700603, MDR [8]: 8 µg/mL (≈ 7.88 µM); MIC, A. baumannii ATCC 19606 [10]: 32 µg/mL (≈ 31.5 µM) |
| CCCCCCC[C@@H](O)CC(=O)N[C@H](CCN)C(=O)N[C@H]1CCNC(=O)[C@H](CC(C)C)NC(=O)[C@H](CCN)NC(=O)[C@H](C)NC(=O)[C@H](CC(C)C)NC(=O)[C@@H](Cc2ccccc2)NC(=O)[C@H](CCN)NC1=O [compound 4945, 3(R)OH-nC9CO-D-Dab-cyc[L-Dab-L-Dab-D-Phe-L-Leu-L-Ala-L-Dab-L-Leu]] ({Decanoyl(3R-OH)}-[dDab][Dab][Dab][dF]LA[Dab]L; lactam 2-C) | – | – | – | – | 181 µM | – | – | – | – | – | – | – | – | MIC, E. coli ATCC 25922 [1]: 16 µg/mL (≈ 15.8 µM); MIC, K. pneumoniae ATCC 13883 [2]: 16 µg/mL (≈ 15.8 µM); MIC, P. aeruginosa FADDI-PA070, PmxR ([3]; Table 5, polymyxin-resistant): 4 µg/mL (≈ 3.94 µM); MIC, A. baumannii Cl Ptyela 10073 4512:2, PmxR [4]: 32 µg/mL (≈ 31.5 µM); MIC, K. pneumoniae ATCC BAA-2146, NDM-1 pos [5]: 8 µg/mL (≈ 7.88 µM); MIC, S. Aureus ATCC 25923, MSSA [6]: 32 µg/mL (≈ 31.5 µM); MIC, P. aeruginosa ATCC 27853 [7]: 4 µg/mL (≈ 3.94 µM); MIC, K. pneumoniae ATCC 700603, MDR [8]: 8 µg/mL (≈ 7.88 µM); MIC, K. pneumoniae Cl 138-16347-20362, PmxR [9]: 16 µg/mL (≈ 15.8 µM); MIC, A. baumannii ATCC 19606 [10]: 16 µg/mL (≈ 15.8 µM); MIC, K. pneumoniae Cl Koprana 10065 0661:1, PmxR [11]: 4 µg/mL (≈ 3.94 µM); MIC, P. aeruginosa PA9704, PmxR [12]: 8 µg/mL (≈ 7.88 µM) |
| CCCCCCC[C@@H](O)CC(=O)N[C@H](CCN)C(=O)N[C@H]1CCNC(=O)[C@H](CC(=O)O)NC(=O)[C@H](CCN)NC(=O)[C@H](CCN)NC(=O)[C@H](CC(C)C)NC(=O)[C@@H](Cc2ccccc2)NC(=O)[C@H](CCN)NC1=O [compound 6513, 3(R)OH-nC9CO-D-Dab-cyc[L-Dab-L-Dab-D-Phe-L-Leu-L-Dab-L-Dab-L-Asp]] ({Decanoyl(3R-OH)}-[dDab][Dab][Dab][dF]L[Dab][Dab]D; lactam 2-C) | >32 µg/mL | >32 µg/mL | >32 µg/mL | >32 µg/mL | > 300 µM | >64 µg/mL | >64 µg/mL | 8 µg/mL (≈ 7.65 µM) | >64 µg/mL | >32 µg/mL | 4 µg/mL (≈ 3.82 µM) | 64 µg/mL (≈ 61.2 µM) | >64 µg/mL | – |
| CCCCCCC[C@@H](O)CC(=O)N[C@H](CCN)C(=O)N[C@H]1CCNC(=O)[C@H](C)NC(=O)[C@H](CCN)NC(=O)[C@H](CCN)NC(=O)[C@H](CC(C)C)NC(=O)[C@@H](Cc2ccccc2)NC(=O)[C@H](CCN)NC1=O [compound 4943, 3(R)OH-nC9CO-D-Dab-cyc[L-Dab-L-Dab-D-Phe-L-Leu-L-Dab-L-Dab-L-Ala]] ({Decanoyl(3R-OH)}-[dDab][Dab][Dab][dF]L[Dab][Dab]A; lactam 2-C) | 32 µg/mL (≈ 31.9 µM) | 16 µg/mL (≈ 16 µM) | 8 µg/mL (≈ 7.98 µM) | 16 µg/mL (≈ 16 µM) | > 300 µM | 8 µg/mL (≈ 7.98 µM) | 16 µg/mL (≈ 16 µM) | 0.5 µg/mL (≈ 0.499 µM) | 8 µg/mL (≈ 7.98 µM) | >32 µg/mL | 1 µg/mL (≈ 0.998 µM) | 8 µg/mL (≈ 7.98 µM) | >32 µg/mL | – |
| CCCCCCC[C@@H](O)CC(=O)N[C@H](CCN)C(=O)N[C@H]1CCNC(=O)[C@H]([C@@H](C)O)NC(=O)[C@H](CCN)NC(=O)[C@H](CCN)NC(=O)[C@H](CC(C)C)NC(=O)[C@@H](Cc2ccccc2)NC(=O)[C@H](CCN)NC1=O [compound 5387, 3(R)OH-nC9CO-D-Dab-cyc[L-Dab-L-Dab-D-Phe-L-Leu-L-Dab-L-Dab-L-Thr]] ({Decanoyl(3R-OH)}-[dDab][Dab][Dab][dF]L[Dab][Dab]T; lactam 2-C) | >32 µg/mL | >32 µg/mL | >32 µg/mL | >32 µg/mL | 210 µM | 2 µg/mL (≈ 1.94 µM) | 2 µg/mL (≈ 1.94 µM) | 2 µg/mL (≈ 1.94 µM) | 1 µg/mL (≈ 0.969 µM) | >32 µg/mL | 1 µg/mL (≈ 0.969 µM) | 2 µg/mL (≈ 1.94 µM) | 8 µg/mL (≈ 7.75 µM) | – |
| CCCCCCC[C@@H](O)CC(=O)N[C@H](CCN)C(=O)N[C@H]1CCNC(=O)[C@H](CC(C)C)NC(=O)[C@H](CCN)NC(=O)[C@H](CCN)NC(=O)[C@H](CC(C)C)NC(=O)[C@@H](Cc2ccc(-c3ccccc3)cc2)NC(=O)[C@H](CCN)NC1=O [compound 5010, 3(R)OH-nC9CO-D-Dab-cyc[L-Dab-L-Dab-D-Bip-L-Leu-L-Dab-L-Dab-L-Leu]] ({Decanoyl(3R-OH)}-[dDab][Dab][Dab][dBip]L[Dab][Dab]L; lactam 2-C) | 4 µg/mL (≈ 3.57 µM) | 2 µg/mL (≈ 1.78 µM) | 4 µg/mL (≈ 3.57 µM) | 2 µg/mL (≈ 1.78 µM) | 75 µM | 2 µg/mL (≈ 1.78 µM) | 2 µg/mL (≈ 1.78 µM) | – | 4 µg/mL (≈ 3.57 µM) | 2 µg/mL (≈ 1.78 µM) | 4 µg/mL (≈ 3.57 µM) | 4 µg/mL (≈ 3.57 µM) | 4 µg/mL (≈ 3.57 µM) | MIC P. aeruginosa GN_043, PmxR ([3]; P. aeruginosa GN_043, PmxR): 2 µg/mL (≈ 1.78 µM) |
| CCCCCCC[C@@H](O)CC(=O)N[C@H](CCN)C(=O)N[C@H]1CCNC(=O)[C@H]([C@@H](C)O)NC(=O)[C@H](CCN)NC(=O)[C@H](CCN)NC(=O)[C@H](CC(C)C)NC(=O)[C@@H](Cc2ccccc2)NC(=O)[C@H](CCNC(=O)[C@@H](N)CCCNC(=N)N)NC1=O [compound 6657, 3(R)OH-nC9CO-D-Dab-cyc[L-Dab-L-Dab(L-Arg)-D-Phe-L-Leu-L-Dab-L-Dab-L-Thr]] ({Decanoyl(3R-OH)}-[dDab][Dab][Dab](Arg)[dF]L[Dab][Dab]T; lactam 2-C) | >32 µg/mL | >32 µg/mL | >32 µg/mL | >32 µg/mL | > 300 µM | >32 µg/mL | >32 µg/mL | – | >32 µg/mL | >32 µg/mL | 16 µg/mL (≈ 13.5 µM) | >32 µg/mL | >32 µg/mL | MIC P. aeruginosa GN_043, PmxR ([3]; P. aeruginosa GN_043, PmxR): >32 µg/mL |
| CCCCCCC[C@@H](O)CC(=O)N[C@H](CCN)C(=O)N[C@H]1CCNC(=O)[C@H](CCCNC(=N)N)NC(=O)[C@H](CCN)NC(=O)[C@H](CCN)NC(=O)[C@H](CC(C)C)NC(=O)[C@@H](Cc2ccccc2)NC(=O)[C@H](CCN)NC1=O [compound 6508, 3(R)OH-nC9CO-D-Dab-cyc[L-Dab-L-Dab-D-Phe-L-Leu-L-Dab-L-Dab-L-Arg]] ({Decanoyl(3R-OH)}-[dDab][Dab][Dab][dF]L[Dab][Dab]R; lactam 2-C) | >32 µg/mL | >32 µg/mL | >32 µg/mL | 32 µg/mL (≈ 29.4 µM) | 142 µM | 16 µg/mL (≈ 14.7 µM) | >64 µg/mL | >32 µg/mL | >64 µg/mL | >32 µg/mL | 2 µg/mL (≈ 1.84 µM) | 16 µg/mL (≈ 14.7 µM) | >64 µg/mL | – |
